Data published in patent US7148353B2 (priority 2003, dated 2006).

Biological target: central benzodiazepine receptors
Assay: binding to central benzodiazepine receptors, displacement of 3H-flunitrazepam (test of Speth et al.)
Details: Table 1a
Work on Cc1ccc(-c2nc3ccc(C)cn3c2CC(=O)CC(C)C)cc1 [—CH2CH(CH3)2] yielded an IC50 of over 10000 nM.
In the case of CC(=O)Cc1c(-c2ccc(C)cc2)nc2ccc(C)cn12 [Example 2d, 1-(6-Methyl-2-p-tolyl-imidazo[1,2-a]pyridin-3-yl)-propan-2-one], the IC50 is reported as 439 nM.
Cc1ccc(-c2nc3ccc(C)cn3c2CC(=O)c2ccccc2)cc1 [Example 4d, 2-(6-Methyl-2-p-tolyl-imidazo[1,2-a]pyridin-3-yl)-1-phenyl-ethanone] showed an IC50 of 1750 nM.
Work on Cc1ccc(-c2nc3ccc(C)cn3c2CC(=O)c2ccc(Cl)cc2)cc1 [Example 3d, 1-(4-Chloro-phenyl)-2-(6-methyl-2-p-tolyl-imidazo[1,2-a]pyridin-3-yl)-ethanone] yielded an IC50 of 4060 nM.
With CCCCCC(=O)Cc1c(-c2ccc(C)cc2)nc2ccc(C)cn12 [Example 5d, 1-(6-Methyl-2-p-tolyl-imidazo[1,2-a]pyridin-3-yl)-heptan-2-one] the IC50 was 420 nM.

Biological target: peripheral benzodiazepine receptors (Rattus norvegicus, UniProt P16257)
Sequence (P16257 whole entry): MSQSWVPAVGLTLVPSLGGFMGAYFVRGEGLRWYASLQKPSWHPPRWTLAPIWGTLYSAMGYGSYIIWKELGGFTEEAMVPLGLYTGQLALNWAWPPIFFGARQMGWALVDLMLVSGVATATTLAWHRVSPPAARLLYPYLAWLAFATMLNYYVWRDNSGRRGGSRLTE
Assay: biochemical
Format: binding
Details: IC50 (nM) peripheral, Table 1a
Method: Compounds of the invention were assessed for their binding to the benzodiazepine receptor by the test of Speth et al. [Life Sci. 24, 351 (1979)] for central benzodiazepine receptors and LeFur et al. [Life Sci. 33, 449 (1983)] for peripheral receptors. The compounds were tested first at 1.0E-09, 1.0E-07 and 1.0E-05 M in single determination. […] The specific ligand binding to the receptor is defined as the difference between the total binding and the nonspecific binding determined in the presence of an excess of unlabelled ligand. In each experiment, the respective reference compound was tested concurrently with the test compounds in order to assess the assay suitability. It was tested at several concentrations (for IC50 value determination), and the data were compared with historical values. The assay was rendered valid if suitability criteria were met.
Cc1ccc(-c2nc3ccc(C)cn3c2CC(=O)c2ccccc2)cc1 [Example 4d, 2-(6-Methyl-2-p-tolyl-imidazo[1,2-a]pyridin-3-yl)-1-phenyl-ethanone] gave an IC50 of 386 nM.
For Cc1ccc(-c2nc3ccc(C)cn3c2CC(=O)c2ccc(Cl)cc2)cc1 [Example 3d, 1-(4-Chloro-phenyl)-2-(6-methyl-2-p-tolyl-imidazo[1,2-a]pyridin-3-yl)-ethanone], the IC50 was 594 nM.

Same assay, conditions: Table 1a; read-out: IC50 (nM) peripheral
In the case of Cc1ccc(-c2nc3ccc(C)cn3c2CC(=O)CC(C)C)cc1 [—CH2CH(CH3)2], the IC50 is reported as 820 nM.
For Cc1ccc(-c2nc3ccc(C)cn3c2CC(=O)c2cc(C)nn2C)cc1, the IC50 was 810 nM.
Molecule Cc1ccc(-c2nc3ccc(C)cn3c2CC(=O)c2cn(C)cn2)cc1 has an IC50 of over 10000 nM.
With Cc1ccc(-c2nc3ccc(C)cn3c2CC(=O)c2cccs2)cc1 [drawing 97] the IC50 was 153 nM.
Molecule CCn1nc(C)c(Br)c1C(=O)Cc1c(-c2ccc(C)cc2)nc2ccc(C)cn12 has an IC50 of 2100 nM.
For Cc1ccc(-c2nc3ccc(C)cn3c2CC(=O)c2cn(-c3cccc(C)n3)cn2)cc1, the IC50 was 6600 nM.
Molecule Cc1ccc(-c2nc3ccc(C)cn3c2CC(=O)c2c(C)nn(C)c2C)cc1 has an IC50 of over 10000 nM.
For Cc1ccc(-c2nc3ccc(C)cn3c2CC(=O)c2sccc2C)cc1, the IC50 was 230 nM.
Cc1ccc(-c2nc3ccc(C)cn3c2CC(=O)c2ccsc2)cc1 showed an IC50 of 240 nM.
With Cc1ccc(-c2nc3ccc(C)cn3c2CC(=O)c2c(C)noc2C)cc1 the IC50 was 1200 nM.
With Cc1ccc(-c2nc3ccc(C)cn3c2CC(=O)C2COc3ccccc3O2)cc1 (stereo not shown) the IC50 was 32 nM.
COc1ccsc1C(=O)Cc1c(-c2ccc(C)cc2)nc2ccc(C)cn12 [drawing 131] gave an IC50 of 180 nM.
Cc1ccc(-c2nc3ccc(C)cn3c2CC(=O)c2nccs2)cc1 showed an IC50 of 1600 nM.
Cc1ccc(-c2nc3ccc(C)cn3c2CC(=O)C2CCCC2)cc1 showed an IC50 of 310 nM.
CC(=O)Cc1c(-c2ccc(C)cc2)nc2ccc(C)cn12 [Example 2d, 1-(6-Methyl-2-p-tolyl-imidazo[1,2-a]pyridin-3-yl)-propan-2-one] gave an IC50 of 231 nM.
Molecule Cc1ccc(-c2nc3ccc(C)cn3c2CC(=O)c2nn(-c3ccccc3)nc2C)cc1 has an IC50 of 7600 nM.
With Cc1ccc(-c2nc3ccc(C)cn3c2CC(=O)c2csc(-c3cccs3)n2)cc1 the IC50 was over 10000 nM.
With Cc1ccc(-c2nc3ccc(C)cn3c2CC(=O)c2c(C)nc3cc(C)ccn23)cc1 the IC50 was 210 nM.
In the case of Cc1ccc(-c2nc3ccc(C)cn3c2CC(=O)c2cc3c(C)nn(C)c3s2)cc1, the IC50 is reported as 2100 nM.
Molecule Cc1ccc(-c2nc3ccc(C)cn3c2CC(=O)c2sccc2Cl)cc1 has an IC50 of 840 nM.
In the case of Cc1ccc(-c2nc3ccc(C)cn3c2CC(=O)c2ccco2)cc1, the IC50 is reported as 1600 nM.
For Cc1ccc(-c2nc3ccc(C)cn3c2CC(=O)c2ccoc2)cc1, the IC50 was 400 nM.
Work on Cc1ccc(-c2nc3ccc(C)cn3c2CC(=O)c2snnc2C)cc1 yielded an IC50 of 320 nM.
For Cc1ccc(-c2nc3ccc(C)cn3c2CC(=O)c2c(C)nn(-c3ccccc3)c2C)cc1, the IC50 was over 10000 nM.
Molecule Cc1ccc(-c2nc3ccc(C)cn3c2CC(=O)c2nccn2C)cc1 has an IC50 of over 10000 nM.
Cc1ccc(-c2nc3ccc(C)cn3c2CC(=O)c2cc(C)on2)cc1 gave an IC50 of 560 nM.
Work on Cc1ccc(-c2nc3ccc(C)cn3c2CC(=O)c2scc(S(C)(=O)=O)c2Cl)cc1 yielded an IC50 of 730 nM.
Cc1ccc(-c2nc3ccc(C)cn3c2CC(=O)C(C)C)cc1 showed an IC50 of 820 nM.
Cc1ccc(-c2nc3ccc(C)cn3c2CC(=O)c2cncnc2)cc1 gave an IC50 of 3400 nM.
In the case of Cc1ccc(-c2nc3ccc(C)cn3c2CC(=O)c2cncn2C)cc1, the IC50 is reported as 3100 nM.
Cc1ccc(-c2nc3ccc(C)cn3c2CC(=O)Cc2cccs2)cc1 gave an IC50 of 59 nM.
With Cc1ccc(-c2nc3ccc(C)cn3c2CC(=O)CCc2ccccc2)cc1 the IC50 was 290 nM.
Work on CSc1ccc(C(=O)Cc2c(-c3ccc(C)cc3)nc3ccc(C)cn23)s1 yielded an IC50 of 6000 nM.
Cc1ccc(-c2nc3ccc(C)cn3c2CC(=O)c2nsc(Cl)c2Cl)cc1 gave an IC50 of 1700 nM.
Work on Cc1ccc(-c2nc3ccc(C)cn3c2CC(=O)c2cc3ccccc3s2)cc1 yielded an IC50 of 220 nM.
Work on CCCCCC(=O)Cc1c(-c2ccc(C)cc2)nc2ccc(C)cn12 [Example 5d, 1-(6-Methyl-2-p-tolyl-imidazo[1,2-a]pyridin-3-yl)-heptan-2-one] yielded an IC50 of 269 nM.
Molecule Cc1ccc(-c2nc3ccc(C)cn3c2CC(=O)c2nnn(C)c2C)cc1 has an IC50 of over 10000 nM.
For Cc1ccc(-c2nc3ccc(C)cn3c2CC(=O)c2ccc(C)s2)cc1, the IC50 was 1800 nM.
Cc1ccc(-c2nc3ccc(C)cn3c2CC(=O)c2cc(C)n(C)n2)cc1 gave an IC50 of 1300 nM.
For Cc1ccc(-c2nc3ccc(C)cn3c2CC(=O)c2sc(C)nc2C)cc1, the IC50 was 2000 nM.
With Cc1ccc(-c2nc3ccc(C)cn3c2CC(=O)C2CC2)cc1 the IC50 was 560 nM.

Same assay, conditions: Table 1b; read-out: IC50 (nM) peripheral
In the case of O=C(Cc1c(-c2ccc(Cl)cc2)nc2ccccn12)c1cccs1, the IC50 is reported as 2600 nM.
In the case of Cc1cc(Cl)cn2c(CC(=O)c3cccs3)c(-c3ccc(Cl)cc3)nc12, the IC50 is reported as 590 nM.
Work on COc1ccc(-c2nc3ccc(C)cn3c2CC(=O)c2cc(C)nn2C)cc1 yielded an IC50 of 2300 nM.
In the case of COc1ccc(-c2nc3ccc(C)cn3c2CC(=O)c2cccs2)cc1, the IC50 is reported as 2400 nM.
Cc1cc(Cl)cn2c(CC(=O)c3ccoc3)c(-c3ccc(Cl)cc3)nc12 gave an IC50 of 350 nM.
For O=C(Cc1c(-c2ccc(Cl)cc2)nc2ccc(Cl)cn12)c1cccs1, the IC50 was 290 nM.

Same assay, conditions: Table 2; read-out: IC50 (nM) peripheral
For Cc1ccc(-c2nc3ccc(C)cn3c2C2CCCN(C)C2=O)cc1 (stereo not shown) [drawing 156], the IC50 was over 10000 nM.
Work on Cc1ccc(-c2nc3ccc(C)cn3c2C2CCCN(C)C2=O)cc1 (stereo not shown) [drawing 155] yielded an IC50 of 1500 nM.
In the case of Cc1ccc(-c2nc3ccc(C)cn3c2C2CCCN(C)C2=O)cc1 (stereo not shown) [drawing 151], the IC50 is reported as 1240 nM.
With Cc1ccc(-c2nc3ccc(C)cn3c2C2CC=CCN(C)C2=O)cc1 (stereo not shown) the IC50 was 210 nM.
For Cc1ccc(-c2nc3ccc(C)cn3c2C2CCCNC2=O)cc1 (stereo not shown), the IC50 was over 10000 nM.

Test system: not listed separately
Assay: maze test, which tests anxiety
Format: in vivo
Details: at 10 mg/kg
Method: The compounds of Example 1d (also found in Example 6d), Example 22d, and Example 35d, were also tested in vivo using the maze test, which tests anxiety [Montgomery, J. Comparative and Physiological Psychology 48, 254–60 (1955); Handley et al., Naunyn-Schmiedeberg's Archives of Pharmacology 327, 1–5 (1984); Lister, Psychopharm. 92, 180–85 (1987); Pellow et al., J. Neuroscience Methods 14, 149–67 (1985); Rodgers et al., Ethology and Psychopharmacology, S. J. Cooper and C. A. Hendrie (eds), John Wiley & Sons, Ltd., 9–43 (1994); and Trullas et al., Psychopharm. 111, 323–31 (1993)]. The results of the maze test for these compounds are found in FIGS. 1a, 1b, 2a, 2b, 3a, and 3b. FIGS. 1a, 2a, and 3a are graphs of the Number of Entries in Open Arms vs. mg/kg (dose of administered compound). FIGS. 1b, 2b, and 3b plot the Percent of Time Spent in Open Arms vs. mg/kg (dose of administered compound). […] The results of the maze test are accepted by persons of skill in the art as predictive of therapeutic utility.
For Cc1ccc(-c2nc3ccc(C)cn3c2CC(=O)c2cccs2)cc1 [Example 1d, 2-(6-Methyl-2-p-tolyl-imidazo[1,2-a]pyridin-3-yl)-1-thiophen-2-yl-ethanone], the “maze test activity (Number of Entries in Open Arms, Percent of Time Spent in Open Arms)” value was “statistically significant activity”.
For COc1ccsc1C(=O)Cc1c(-c2ccc(C)cc2)nc2ccc(C)cn12 [Example 22d, 1-(3-Methoxy-thiophen-2-yl)-2-(6-methyl-2-p-tolyl-imidazo[1,2-a]pyridin-3-yl)-ethanone], the “maze test activity (Number of Entries in Open Arms, Percent of Time Spent in Open Arms)” value was “statistically significant activity”.
